Measured values from article PMC11585924, “Direct measurements of neurosteroid binding to specific sites on GABAA receptors” (British journal of pharmacology, 2024).
Values joined by “and” are separate entries in the source; they are usually repeats but may differ in a detail not shown here. Equal values may be shown once. “Also recorded” adds a separate entry of the source. Read-outs that look alike come from different tables or passages of the source.

Columns and labels:
ELIC-α1GABAAR [1] = target: T1, ELIC-α1GABAAR (Homo sapiens, UniProt P14867); assay type: binding
T1 sequence (P14867 other isoform, or with tags, fused parts or gaps): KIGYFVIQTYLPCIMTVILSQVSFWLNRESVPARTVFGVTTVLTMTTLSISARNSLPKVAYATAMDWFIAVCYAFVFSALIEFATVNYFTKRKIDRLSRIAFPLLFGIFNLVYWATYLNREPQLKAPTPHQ
T1 sequence (P0C7B7 1-198, further chain): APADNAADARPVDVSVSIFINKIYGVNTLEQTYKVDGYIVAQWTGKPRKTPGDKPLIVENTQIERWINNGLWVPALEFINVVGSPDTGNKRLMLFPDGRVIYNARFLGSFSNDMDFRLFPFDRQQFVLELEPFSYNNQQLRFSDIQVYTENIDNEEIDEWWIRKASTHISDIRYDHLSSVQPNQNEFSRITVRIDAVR
Procedure: One hundred microlitres of ELIC-α1GABAAR (0.3 μM) was transferred into a 50-μl window quartz cuvette maintained at 4°C, and NaI was added to the protein sample to a final concentration of 100 mM and incubated for 10 min. MQ290 was then added at a concentration of 3 μM for 3α-OH NS inhibition curves or 1 μM for 3β-OH NS inhibition curves and incubated for 30 min. One-microlitre aliquots of 3α-OH and 3β-OH NS from their corresponding stock solutions (prepared in Buffer A + 0.015% DDM) were added to achieve concentrations between 0.01 and 30 μM. The background emission spectra of ligands alone were obtained for each ligand concentration in the absence of protein and were subtracted from the protein-ligand emission spectra to yield background subtracted data. The MQ290 FRET spectra for different ligand concentrations were estimated using the method described above. The 370-nm intensities of the FRET spectra were plotted against ligand concentration and fitted to a four-parameter logistic curve to obtain IC50 data (GraphPad Software version 9.4.0, San Diego, CA). Ki values were calculated using the relationship: Ki=IC50/1+LT/Kd
where LT is the concentration of MQ290 and Kd was determined from the MQ290 binding curve.

α1β3 GABAA receptors = target: T2, α1β3 GABAA receptors (Homo sapiens, UniProt P14867+P28472); assay: Two-electrode voltage clamp of GABA-elicited currents in Xenopus oocytes; assay type: cell-based; conditions: for potentiation of GABA-elicited currents: low GABA, wild-type α1β3
T2 construct: expressed in transfected cells; host or cells: Xenopus laevis oocytes, cRNA injected 5:1 (α1:β3)
T2 sequence (P14867 28-456): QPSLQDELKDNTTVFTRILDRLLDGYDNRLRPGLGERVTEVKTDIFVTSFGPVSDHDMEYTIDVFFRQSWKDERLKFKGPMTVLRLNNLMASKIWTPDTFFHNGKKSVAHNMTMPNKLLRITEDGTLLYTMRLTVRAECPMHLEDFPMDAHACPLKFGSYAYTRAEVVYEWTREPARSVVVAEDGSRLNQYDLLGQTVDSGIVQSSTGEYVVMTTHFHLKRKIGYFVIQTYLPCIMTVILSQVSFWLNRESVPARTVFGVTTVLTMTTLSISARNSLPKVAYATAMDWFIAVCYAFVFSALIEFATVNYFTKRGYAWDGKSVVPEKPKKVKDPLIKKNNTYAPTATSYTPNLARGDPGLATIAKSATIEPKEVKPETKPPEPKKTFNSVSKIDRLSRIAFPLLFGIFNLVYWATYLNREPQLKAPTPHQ
T2 sequence (P28472 26-473): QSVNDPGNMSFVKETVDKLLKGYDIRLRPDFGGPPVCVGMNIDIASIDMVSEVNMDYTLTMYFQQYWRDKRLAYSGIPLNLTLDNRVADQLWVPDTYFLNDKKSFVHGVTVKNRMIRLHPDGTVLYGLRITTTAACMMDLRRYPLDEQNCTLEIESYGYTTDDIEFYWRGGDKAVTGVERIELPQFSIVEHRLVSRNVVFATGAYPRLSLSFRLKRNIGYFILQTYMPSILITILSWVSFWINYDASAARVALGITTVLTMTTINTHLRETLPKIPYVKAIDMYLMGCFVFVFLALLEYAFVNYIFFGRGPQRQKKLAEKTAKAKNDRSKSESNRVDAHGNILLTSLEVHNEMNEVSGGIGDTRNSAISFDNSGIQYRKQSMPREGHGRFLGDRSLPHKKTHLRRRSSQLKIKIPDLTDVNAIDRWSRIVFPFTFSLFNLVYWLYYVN
Procedure: (§1) Receptor expression and electrophysiological recordings were conducted as described in detail previously ([Sugasawa et al., 2020]). In brief, α1β3 GABAA receptors were expressed in oocytes from the African clawed frog (X. laevis). The wild-type α1 and β3 subunits were of human origin (Genbank accession numbers NM_000806.5 and NM_000814.5, respectively). The α1 clone containing the Q-to-L mutation to the classic neurosteroid binding site ([Hosie et al., 2006]) was of rat origin. (The glutamine residue in ELIC-α1GABAAR is Q242, whereas the corresponding residue in rat α1 is Q241. For simplicity, the residue is referred to as Q242 for both rat and ELIC-α1GABAAR.) The oocytes were purchased as quarter ovaries from Xenopus1 (Dexter, MI, USA). Following digestion in 2% w/v (mg·ml^−1) collagenase A, the oocytes were injected with a total of 12 ng cRNA per oocyte in a 5:1 ratio (α1:β3) and incubated at 15°C for 2–3 days prior to electrophysiological recordings in ND96 (96-mM NaCl, 2-mM KCl, 1.8-mM CaCl2, 1-mM MgCl2, 5-mM HEPES; pH 7.4) supplemented with 100 U·ml^−1 penicillin and 100 μg·ml^−1 streptomycin.
(§2) Electrophysiological recordings were conducted at ≈22°C using standard two-electrode voltage clamp. The voltage and current electrodes (G120F-4, OD = 1.20 mm, ID = 0.69 mm; Warner Instruments, Hamden, CT, USA) were filled with 3-M KCl and had resistances of 0.3–1 MΩ. The oocytes were clamped at −60 mV. The chamber (RC-1Z; Warner Instruments) was perfused with ND96 at 5–8 ml·min^−1. Solutions were gravity-applied. The current responses were amplified with an Axoclamp 900A (Molecular Devices, San Jose, CA, USA) or OC-725C amplifier (Warner Instruments), digitized with a Digidata 1200 series digitizer (Molecular Devices) and stored on PC hard drive using pClamp (Molecular Devices; RRID:SCR_011323). Current amplitudes were determined using Clampfit (Molecular Devices).
A standard experiment consisted of a several-minute long applications of GABA followed immediately by a co-application of GABA + modulator and a wash in GABA. For normalization purposes, each cell was exposed to the combination of saturating (1-mM) GABA + 50-μM propofol, assumed to fully activate all receptors in the cell ([Eaton et al., 2016]).

[2] = test system: T3, α1^Q242Lβ3 GABAA receptors; assay: Two-electrode voltage clamp, α1(Q242L) mutant receptors in Xenopus oocytes; assay type: cell-based, rat α1, human β3; conditions: low GABA; α1(Q242L)β3
T3 construct: expressed in transfected cells; host or cells: Xenopus laevis oocytes, cRNA injected 5:1 (α1:β3)
Procedure: as §1, §2
A standard experiment consisted of a several-minute long applications of GABA followed immediately by a co-application of GABA + modulator and a wash in GABA. […]

ELIC-α1^W246LGABAAR = ELIC-α1^W246LGABAAR (Homo sapiens, UniProt P14867, W273L); assay: MQ290 FRET in W246L receptors; assay type: binding; conditions: W246L vs WT
Sequence of ELIC-α1^W246LGABAAR (P14867 other isoform, or with tags, fused parts or gaps W273L): as the sequence (P14867 other isoform, or with tags, fused parts or gaps) above, with W25L counted along it
Sequence of ELIC-α1^W246LGABAAR (P0C7B7 1-198, further chain): as the sequence (P0C7B7 1-198, further chain) above
Procedure: (§3) To monitor binding of MQ290 to ELIC-α1GABAAR, 100 μl of ELIC-α1GABAAR (0.3 μM) was transferred into a 50-μl window quartz cuvette that was placed in a cuvette holder. The temperature of the cuvette was maintained at 4°C. NaI (final concentration = 100 mM) was added to the protein sample and incubated for 10 min to reduce the emission of hydrophilic tryptophan residues. One-microlitre aliquots of 100× stock solutions of MQ290 (prepared in Buffer A + 0.015% DDM) were sequentially added to the protein sample and incubated for 30 min after each addition. Because MQ290 alone absorbs at 280 nm, emission spectrum (background spectrum) of MQ290 in the absence of protein was also obtained. The MQ290 background spectra were subtracted from the protein-MQ290 emission spectra to obtain the background-corrected spectra and were smoothened using the Savitzky–Golay method before analysis.
(§4) The ELIC-α1GABAAR emission spectrum obtained before the addition of MQ290 was used as the reference to estimate the contribution of ELIC-α1GABAAR tryptophan emission in the presence of MQ290. […] The calculated ELIC-α1GABAAR tryptophan emission spectrum was then subtracted from the background-corrected spectrum to obtain the emission spectrum of the signal resulting from energy transfer (FRET spectrum) from tryptophan to MQ290 (Figure S6). […]

ELIC-α1^Q242LGABAAR = assay: MQ290 FRET in Q242L receptors; assay type: binding, human; conditions: Q242L vs WT
Procedure: as §3, §4

ELIC-α1GABAAR [3] = target: T1, ELIC-α1GABAAR; assay: KK200 photolabelling competition, middle-down MS; assay type: binding; conditions: 3 μM KK200, 30 μM competitor
Procedure: The synthesis of the NS photolabelling reagent KK200 is detailed in previous reports ([W. W. L. Cheng et al., 2018]; [Jiang et al., 2016]). […] The samples were then irradiated in a quartz cuvette for 5 min, using a photoreactor emitting light at >320 nm ([Germann et al., 2021]). Sample preparation for tryptic digestion and analysis by LC–MS was performed as previously described ([Sugasawa et al., 2019]). Peptides were separated on a home-packed PLRP-S (Agilent, Santa Clara, CA, USA) column (10 cm × 75 μm, 300 Å) using a 135-min gradient from 10% to 90% acetonitrile and introduced to an Orbitrap-Elite mass spectrometer (Thermo Fisher Scientific, Waltham, MA, USA; RRID:SCR_020548) at 800 nl·min^−1 with a nanospray source. MS acquisition was set as an MS1 Orbitrap scan (resolution of 60,000) followed by top 20 MS2 Orbitrap scans (resolution of 15,000) using data-dependent acquisition and exclusion of singly charged precursors. Fragmentation was performed using high-energy dissociation with normalized energy of 35%. Analysis of data sets was performed using Xcalibur (Thermo Fisher Scientific, Waltham, MA, USA; RRID: SCR_014593) to manually search for TM1, TM2, TM3 or TM4 tryptic peptides with or without NS photolabelling modifications. Photolabelling efficiency was estimated by generating extracted chromatograms of unlabelled and labelled peptides, determining the area under the curve, and calculating the (area of labelled peptide/(area of unlabelled + area of labelled peptide). MS2 spectra of photolabelled TMD peptides were analysed by manual assignment of fragment ions with and without photolabelling modification.

ELIC-α1GABAAR [4] = target: T1, ELIC-α1GABAAR; assay type: binding; remark: listed apart in the source
Procedure: Excitation and emission spectra were obtained using a FluoroMax Plus-C fluorometer (Horiba Instruments, Tokyo, Japan). For obtaining emission spectra, 280 nm was used as the excitation wavelength and emission was recorded from 300 to 450 nm. The excitation and emission slit widths used for obtaining emission spectra were 1 and 5 nm. For protein-ligand binding experiments, three emission spectra were obtained and averaged after each addition of a ligand or sodium iodide (NaI). The averaged spectra were smoothed using the Savitzky–Golay method before analysis.
One hundred microlitres of purified ELIC-α1GABAAR (0.3 μM in Buffer A + 0.015% DDM) was transferred into a 50-μl window quartz cuvette (Starna Cells, Atascadero, CA, USA), which was placed in a cuvette holder maintained at 4°C. […] Two microlitres of NaI (AK Scientific, Union City, CA, USA; 5-M stock prepared in 0.1-Mm sodium hydrosulfite [Sigma-Aldrich, St. Louis, MO, USA]) was added to the protein (final concentration = 100 mM) and incubated for 10 min to reduce the fluorescence emission from hydrophilic tryptophans. To measure the concentration–dependent effects of NS on tryptophan fluorescence, 1 μl of NS from each 100× stock solution was sequentially added to the NaI-equilibrated protein and thoroughly mixed to achieve concentrations from 0.01 to 50 μM. […]

Row | Structure (SMILES) | Hill slope (ELIC-α1GABAAR [1]; 3β-OH NS, MQ290 1 μM) | potentiation of GABA-elicited currents (α1β3 GABAA receptors) | potentiating effect with α1(Q242L) mutation [2] | Hill slope (ELIC-α1GABAAR [1]; 3α-OH NS, MQ290 3 μM) | also measured
1 | CC(=O)[C@H]1CCC2C3CC[C@H]4C[C@@](C)(O)CC[C@]4(C)C3CC[C@@]21C (stereo partly drawn) [Epi-GX, epi-ganaxolone] | −0.67 ± 0.30 | do not |  |  | 
2 | CC(=O)[C@H]1CCC2C3CC[C@@H]4C[C@@H](O)CC[C@]4(C)C3CC[C@@]21C (stereo partly drawn) [Epi-PREG, Epi-pregnanolone] | −0.77 ± 0.42 | potentiates | prevented |  | 
3 | CC(=O)[C@H]1CC[C@H]2[C@@H]3CC[C@H]4C[C@](C)(O)CC[C@]4(C)[C@H]3CC[C@]12C [GX, ganaxolone] |  |  |  | −1.57 ± 0.26 | 
4 | CO[C@H]1CCC2C3=CC=C4C[C@H](O)CC[C@]4(C)C3=CC[C@@]21C (stereo partly drawn) [MQ290] |  | potentiates | eliminated |  | reduction of maximal MQ290 FRET signal in W246L receptors (ELIC-α1^W246LGABAAR): ~ 90% and 90%; MQ290 FRET signal in Q242L mutants (ELIC-α1^Q242LGABAAR): significantly reduced; prevention of KK200 photolabelling of TM3 (Y309) (ELIC-α1GABAAR [3]): significantly different than control; also recorded: prevented; EC50 (α1β3 GABAA receptors): 1 to 10 µM
5 | CC(=O)[C@H]1CC[C@H]2[C@@H]3CC[C@@H]4C[C@H](O)CC[C@]4(C)[C@H]3CC[C@]12C [PREG, pregnanolone] |  |  |  | −1.02 ± 0.35 | 
6 | CO[C@H]1CCC2C3CC[C@H]4C[C@H](O)CC[C@]4(C)C3CC[C@@]21C (stereo partly drawn) [YX03] |  | enhances; also recorded: potentiates | blocked | −0.98 ± 0.37 | prevention of AlloP induced quenching (ELIC-α1GABAAR [4]): partially prevents; quenching of ELIC-α1GABAAR tryptophan fluorescence (ELIC-α1GABAAR [4]; YX03 10 and 30 µM): absent; also recorded: does not quench
